Source: US20140243422A1, “METHODS OF TREATING BEHAVIORAL AND PSYCHIATRIC DISORDERS” (ELAN PHARMACEUTICALS, INC., priority 2011, published 2014)

Assays:
Type in all cases: in vivo, human
[1] = test system: patients with mild to moderate AD (MMSE 16-26); experiment: Phase 2 trial: Neuropsychiatric Inventory (NPI-12) scores, cluster scores and emergence of new NPS
Description: Several scales have been used for the assessment of BPSD. These include scales that have been specifically designed for studying NPS in patients with dementia, such as the “Behavioral Pathology in AD Rating Scale” (BEHAVE-AD, Reisberg et al. BEHAVE-AD: A clinical rating scale for the assessment of pharmacologically remediable behavioral symptomatology in Alzheimer's disease. In: Altman H J, editor. Alzheimer's Disease: Problems, prospects, and perspectives. Plenum; New York: 1987. pp. 1-161996), CERAD behavior rating scale for dementia (BRSD, Tariot 1996, International Psychogeriatrics, 8(Suppl. 3):317-320), and the Neuropsychiatric Inventory (NPI, Cummings et al. 1994, Neurology. 1994; 44:2308-14). The NPI which was designed to evaluate the broad range of behavioral symptoms that may develop in dementia patients, is a well validated instrument and has been widely used in BPSD studies and in AD treatment trials. The original version assessed 10 symptoms or items, including: delusions, hallucinations, agitation/aggression, depression/dysphoria, anxiety, apathy, irritability, euphoria/elation, disinhibition, and aberrant motor behavior; and was subsequently updated to include appetite changes and nighttime behaviors (sleep disturbances). The NPI is administered by a trained individual as a structured interview with the patient's caregiver. Each item is assessed by a scripted screening question, and the frequency and severity of each item is scored from 0-4 (0: absent, 1: occasional or less than once per week to 4 occurs at least daily), and from 1-3 (1: mild or produces little distress in patient; 2: moderate or more disturbing to patient but can be re-directed by caregiver; and 3: severe or very disturbing to patient and difficult to re-direct). The total item-score is then derived from frequency multiplied by the severity score; and the total NPI score (NPI-T) is derived from addition of all item scores, with the range of scores being from 0 (no NPS at all) to 144 (all 12 NPS are present at maximum severity at daily basis). In the majority of the drug trials in Mild/Moderate AD, the mean total NPI scores are ˜10-12 at baseline. The Phase 2 study described in the example below utilized the NPI-12 item assessment; and the mean total NPI scores were between 8 and 10 at baseline. This baseline severity is slightly lower than the range reported in many Mild to Moderate AD trials reported in the literature.
(§1) In a Phase 2, parallel arm, dose-ranging, placebo-controlled, double-blind, multicenter trial in patients with mild to moderate AD (MMSE 16-26), scyllo-inositol was administered to study subjects in immediate release tablets twice daily at the dosage level set for each study arm or identical-appearing placebo tablets were administered in the control arm. […] The study included neuropsychological assessments using the NPI-12 item scale, as well as assessments of scyllo-Inositol (SI) and myo-inositol (MI) brain levels using magnetic resonance spectroscopy (MRS).
The present study was a dose ranging study in Mild and Moderate AD patients (defined as having MMSE scores of 16-26 inclusive), and included 3 doses of scyllo-insoitol given bid (250 mg, 1000 mg, and 2000 mg) and placebo. The study was of 78 weeks duration and enrolled a total of 353 patients, and 351 received study drug (safety population). Due to safety findings in the 2 highest dose groups, these 2 groups were discontinued and the study's final efficacy analysis was based only on the 250 mg and placebo groups. […] In the overall study population, total randomized to all 4 dose groups=353, total that received study drug=351 (safety population, at any dose). For placebo and 250 mg group, the overall m-ITT (modified intent-to-treat)=166, overall PPS (per protocol set)=96.
A potentially disease-modifying drug, by altering regional neuronal dysfunction, may prevent or delay the emergence of abnormal behaviors as quantified by the NPI outcomes. […]

[2] = test system: myo-inositol brain levels; experiment: Phase 2 trial: brain myo-inositol and scyllo-inositol levels by magnetic resonance spectroscopy (MRS)
Method: as §1
The maximal myo-inositol reduction measured at the 3 studied doses was 44%, 66% and 60% at the 250 mg, 1000 mg, and 2000 mg bid doses, respectively.

[3] = test system: patients with mild to moderate AD (MMSE 16-26); experiment: Phase 2 trial: safety and tolerability; conditions: 250 mg bid, elderly study population
Method: The present study was a dose ranging study in Mild and Moderate AD patients (defined as having MMSE scores of 16-26 inclusive), and included 3 doses of scyllo-insoitol given bid (250 mg, 1000 mg, and 2000 mg) and placebo. The study was of 78 weeks duration and enrolled a total of 353 patients, and 351 received study drug (safety population). Due to safety findings in the 2 highest dose groups, these 2 groups were discontinued and the study's final efficacy analysis was based only on the 250 mg and placebo groups. The primary efficacy analysis was based on the overall population (mild and moderate), but the statistical analysis plan (SAP) Included subgroup analyses by disease severity, and defined Mild as patients with MMSE 23-26 and Moderate 16-22 inclusive. In the overall study population, total randomized to all 4 dose groups=353, total that received study drug=351 (safety population, at any dose). For placebo and 250 mg group, the overall m-ITT (modified intent-to-treat)=166, overall PPS (per protocol set)=96.
In summary, scyllo-inositol exposures ≧1000 mg bid provide less cognitive and functional benefit than the 250 mg bid dose. These high exposures may be associated with an increase in neuropsychiatric adverse events.

[4] = 250 mg bid vs placebo, Mild AD, m-ITT

brain scyllo-inositol level by MRS ([2]; 250, 1000, 2000 mg bid): dose-dependent increase
Compound: O[C@H]1[C@H](O)[C@@H](O)[C@H](O)[C@@H](O)[C@@H]1O [scyllo-inositol]
Score Difference (Summary Statistics), Affective Syndrome (6 symptoms) ([1]; 250 mg bid vs placebo, Mild AD MMSE 22-26, m-ITT): +3.47
Score Difference (MMRM), Affective Syndrome (Depression, Anxiety, Agitation, Nighttime Behavior, Appetite Changes, Apathy) ([1]; 250 mg bid vs placebo, Mild AD MMSE 22-26, m-ITT, factor-analysis cluster): +1.36
Score Difference (MMRM), Apathy [1, 4]: −0.35
Score Difference (MMRM), Behavioral cluster: Aberrant Motor/Nighttime Behaviors [1, 4]: +0.05
Score Difference (MMRM), Frontal cluster: Elation and Disinhibition [1, 4]: +0.33
Score Difference (MMRM), Psychotic cluster: Delusions and Hallucinations [1, 4]: −0.29
Score Difference (MMRM), Affective: Depression and Anxiety ([1]; 250 mg bid vs placebo, Moderate AD MMSE 16-21, m-ITT): +0.94
improvement of Affective Syndrome score change compared to placebo group, by MMRM ([1]; 250 mg bid, Mild AD MMSE 22-26): 35%
improvement of Affective Syndrome score change compared to placebo group, by summary statistics ([1]; 250 mg bid, Mild AD MMSE 22-26): 91%
NPI total score benefit compared to placebo ([1]; 250 mg bid, Mild MMSE 22-26, m-ITT, 78 weeks): 44%
NPI total score numerical difference from placebo ([1]; 250 mg bid, Mild MMSE 22-26, m-ITT, 78 weeks, not statistically significant): ~2 points
proportion of patients who developed at least 2 new symptoms, lower versus placebo ([1]; 250 mg bid, Mild m-ITT MMSE 22-26, over 78 weeks, p<0.05): 21.5%
NPI total score improvement versus placebo ([1]; 250 mg bid, Moderate MMSE 16-21, PP analysis): ~50%
NPI total score, better than placebo ([1]; 250 mg bid, Moderate MMSE 16-21, PP analysis, 78 weeks, not statistically significant): ~4 points
NPI total score versus placebo ([1]; 250 mg bid, Moderate MMSE 16-21, m-ITT analysis): did not show significant differences from placebo
proportion of patients who developed at least 2 new symptoms, lower versus placebo ([1]; 250 mg bid, Moderate m-ITT MMSE 16-21, over 78 weeks, p=0.33): 12.4%
proportion of patients who developed at least 4 new symptoms, lower versus placebo ([1]; 250 mg bid, Moderate m-ITT MMSE 16-21, over 78 weeks, p=0.34): 12.1%
increase in prevalence of irritability, baseline to end of study ([1]; 250 mg group, Mild, week 78): 10%
prevalence of apathy, anxiety, agitation, appetite and sleep change, baseline to end of study ([1]; 250 mg group, Mild, week 78): remained stable
emergence of depression, anxiety, appetite change, agitation and apathy at any time during the study ([1]; 250 mg, Mild MMSE 22-26): decreases the emergence
emergence of NPS at any time during the study ([1]; 250 mg, Moderate MMSE 16-21): decreased emergence of most NPS
emergence of irritability ([1]; 250 mg, Moderate MMSE 16-21): more prevalent with treatment
Score Difference (MMRM), Affective: Depression and Anxiety ([1]; Moderate AD, PPS): +1.07
Score Difference (MMRM), Apathy ([1]; Moderate AD, PPS): +0.14
Score Difference (MMRM), Behavioral: Aberrant Motor, Nighttime Behaviors ([1]; Moderate AD, PPS): +1.42
Score Difference (MMRM), Frontal: Elation and Disinhibition ([1]; Moderate AD, PPS): +0.68
Score Difference (MMRM), Psychotic: Delusions and Hallucinations ([1]; Moderate AD, PPS): +1.32
Score Difference (summary statistics), Affective: Depression and Anxiety ([1]; Moderate AD, PPS): +0.06
Score Difference (summary statistics), Apathy ([1]; Moderate AD, PPS): +0.68
Score Difference (summary statistics), Behavioral: Aberrant Motor, Nighttime Behaviors ([1]; Moderate AD, PPS): +1.96
Score Difference (summary statistics), Frontal: Elation and Disinhibition ([1]; Moderate AD, PPS): +0.53
Score Difference (summary statistics), Psychotic: Delusions and Hallucinations ([1]; Moderate AD, PPS): +0.71
Score Difference (MMRM), Apathy ([1]; Moderate AD, m-ITT): +0.97
Score Difference (MMRM), Behavioral: Aberrant Motor, Nighttime Behaviors ([1]; Moderate AD, m-ITT): +0.11
Score Difference (MMRM), Frontal: Elation and Disinhibition ([1]; Moderate AD, m-ITT): +0.56
Score Difference (MMRM), Psychotic: Delusions and Hallucinations ([1]; Moderate AD, m-ITT): −0.52
Score Difference (summary statistics), Affective: Depression and Anxiety ([1]; Moderate AD, m-ITT): −0.15
Score Difference (summary statistics), Apathy ([1]; Moderate AD, m-ITT): +1.09
Score Difference (summary statistics), Behavioral: Aberrant Motor, Nighttime Behaviors ([1]; Moderate AD, m-ITT): +1.76
Score Difference (summary statistics), Frontal: Elation and Disinhibition ([1]; Moderate AD, m-ITT): +0.48
Score Difference (summary statistics), Psychotic: Delusions and Hallucinations ([1]; Moderate AD, m-ITT): +0.34
emergence of depression and/or anxiety by plasma AUC quartile ([1]; plasma AUC corresponding to the 250 mg bid dose (second quartile)): significant decrease
maximal myo-inositol reduction in brain (MRS) ([2]; 250 mg bid, maximal at about 48 to about 78 weeks): 44%
maximal myo-inositol reduction in brain (MRS) ([2]; 1000 mg bid): 66%
maximal decrease of myo-inositol levels ([2]; 1000 mg bid and 2000 mg bid): 60-66%
maximal myo-inositol reduction in brain (MRS) ([2]; 2000 mg bid): 60%
safety and CNS tolerability [3]: acceptable safety and good CNS tolerability
